Assay results from ChEMBL document CHEMBL1201862, “PubChem BioAssay data set” (2004).
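The compound was tested at five concentrations on cells cultured in 96-well plates, with a 48-hour exposure period. GI50 = concentration required for 50% inhibition of growth.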 The source made the active and inactive calls. No stated cut-off is given here; in the data, active = GI50 up to about 1.1 µM and inactive = higher.

Legend:
Assay in all cases: NCI anticancer screen, dose series, 48 h
HOP-62 = tested on: HOP-62
A549 = tested on: A549
RPMI-8226 = tested on: RPMI-8226
OVCAR-5 = tested on: OVCAR-5
M14 = tested on: M14
SK-OV-3 = tested on: SK-OV-3
NCI-H460 = tested on: NCI-H460
EKVX = tested on: EKVX
NCI-H226 = tested on: NCI-H226
UO-31 = tested on: UO-31
SK-MEL-28 = tested on: SK-MEL-28
U-251 = tested on: U-251
COLO 205 = tested on: COLO 205
Hs-578T = tested on: Hs-578T
SNB-75 = tested on: SNB-75
A498 = tested on: A498
SW-620 = tested on: SW-620
CCRF-CEM = tested on: CCRF-CEM
SR = tested on: SR

Structure (SMILES)	GI50 (HOP-62)	GI50 (A549)	GI50 (RPMI-8226)	GI50 (OVCAR-5)	GI50 (M14)	GI50 (SK-OV-3)	GI50 (NCI-H460)	GI50 (EKVX)	GI50 (NCI-H226)	GI50 (UO-31)	GI50 (SK-MEL-28)	GI50 (U-251)	GI50 (COLO 205)	GI50 (Hs-578T)	GI50 (SNB-75)	GI50 (A498)	GI50 (SW-620)	GI50 (CCRF-CEM)	GI50 (SR)
N#Cc1c(N)[nH]c2ccc(Sc3ccccc3)cc12	0.456 µM (active)	0.282 µM (active)	0.361 µM (active)	0.964 µM (active)	0.0828 µM (active)	0.53 µM (active)	0.201 µM (active)	0.659 µM (active)	0.457 µM (active)	0.236 µM (active)	0.141 µM (active)	0.297 µM (active)	0.323 µM (active)	0.449 µM (active)	0.624 µM (active)	0.196 µM (active)	0.121 µM (active)	0.151 µM (active)	
CCSC1=N/C(=C\c2ccc(N(C)C)cc2)C(Cl)=N1	> 100 µM (inactive)	> 100 µM (inactive)	59.3 µM (inactive)	> 100 µM (inactive)	> 100 µM (inactive)	> 100 µM (inactive)	> 100 µM (inactive)	> 100 µM (inactive)	> 100 µM (inactive)	> 100 µM (inactive)	> 100 µM (inactive)	> 100 µM (inactive)	> 100 µM (inactive)	> 100 µM (inactive)	> 100 µM (inactive)	> 100 µM (inactive)	> 100 µM (inactive)	> 100 µM (inactive)	
Cc1cc(OC(=O)Nc2cccc3ccccc23)c(C(C)C)cc1C(=S)Nc1ccccc1	16.6 µM (inactive)	21.8 µM (inactive)	21.1 µM (inactive)	20.7 µM (inactive)	18.6 µM (inactive)	10.4 µM (inactive)	16.9 µM (inactive)	23.7 µM (inactive)		17.6 µM (inactive)	18 µM (inactive)	18.1 µM (inactive)	19.6 µM (inactive)	12.3 µM (inactive)			16.8 µM (inactive)	7.6 µM (inactive)	6.49 µM (inactive)
COc1ccc2c(c1)[nH]c1c3ccc(OC)cc3oc(=O)c21	> 100 µM (inactive)	> 100 µM (inactive)	60.7 µM (inactive)	> 100 µM (inactive)	> 100 µM (inactive)	> 100 µM (inactive)	> 100 µM (inactive)	> 100 µM (inactive)	> 100 µM (inactive)	> 100 µM (inactive)	> 100 µM (inactive)	> 100 µM (inactive)	> 100 µM (inactive)	55.2 µM (inactive)	25.1 µM (inactive)	> 100 µM (inactive)	> 100 µM (inactive)	> 100 µM (inactive)	
CC(Nc1ccc(Cl)cc1)c1ccncc1 (stereo unspecified)	> 100 µM (inactive)	> 100 µM (inactive)	12.4 µM (inactive)	> 100 µM (inactive)	> 100 µM (inactive)	0.0315 µM (active)	36.8 µM (inactive)	75.5 µM (inactive)	> 100 µM (inactive)	63.1 µM (inactive)	> 100 µM (inactive)	> 100 µM (inactive)	> 100 µM (inactive)	> 100 µM (inactive)	> 100 µM (inactive)	81.7 µM (inactive)	> 100 µM (inactive)	83.9 µM (inactive)	
CCOC(=O)C1(NC(=O)OC(C)(C)C)CCc2[nH]oc(=O)c2C1 (stereo unspecified)	> 100 µM (inactive)	> 100 µM (inactive)	> 100 µM (inactive)	> 100 µM (inactive)	> 100 µM (inactive)	> 100 µM (inactive)	> 100 µM (inactive)	> 100 µM (inactive)	> 100 µM (inactive)	> 100 µM (inactive)	> 100 µM (inactive)	> 100 µM (inactive)	> 100 µM (inactive)	> 100 µM (inactive)	> 100 µM (inactive)	> 100 µM (inactive)	> 100 µM (inactive)	> 100 µM (inactive)	
